The values that follow come from patent US20190152992A1, “BENZODIOXANE DERIVATIVES AND THEIR PHARMACEUTICAL USE” (Orion Corporation, priority 2016, published 2019).

One assay deals with T1, human alpha2C receptors (Homo sapiens, UniProt P18825).
T1 sequence (P18825 1-462): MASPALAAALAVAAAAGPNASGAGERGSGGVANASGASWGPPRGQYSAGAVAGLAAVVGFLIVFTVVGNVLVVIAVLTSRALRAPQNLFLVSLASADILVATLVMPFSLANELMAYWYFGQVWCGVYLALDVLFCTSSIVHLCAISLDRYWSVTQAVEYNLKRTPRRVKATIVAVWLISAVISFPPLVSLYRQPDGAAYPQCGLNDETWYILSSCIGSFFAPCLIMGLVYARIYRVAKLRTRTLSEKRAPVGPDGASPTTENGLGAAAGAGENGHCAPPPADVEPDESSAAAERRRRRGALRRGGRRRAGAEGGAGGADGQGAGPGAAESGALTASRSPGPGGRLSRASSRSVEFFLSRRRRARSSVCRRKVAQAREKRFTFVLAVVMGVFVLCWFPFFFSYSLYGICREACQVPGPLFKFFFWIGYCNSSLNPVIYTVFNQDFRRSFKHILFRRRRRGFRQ
Nature of the assay: Determination of alpha2C antagonistic activity in vitro (FLIPR calcium assay). The following applies: for Kb: Alpha 2C Adrenaline Kb, Kb calculated from IC50 with the Cheng-Prusoff equation, adrenaline as agonist, CHO cells, human alpha2C.

A further assay concerns the target T2, human alpha2A receptors (Homo sapiens, UniProt P08913).
T2 sequence (P08913 1-465): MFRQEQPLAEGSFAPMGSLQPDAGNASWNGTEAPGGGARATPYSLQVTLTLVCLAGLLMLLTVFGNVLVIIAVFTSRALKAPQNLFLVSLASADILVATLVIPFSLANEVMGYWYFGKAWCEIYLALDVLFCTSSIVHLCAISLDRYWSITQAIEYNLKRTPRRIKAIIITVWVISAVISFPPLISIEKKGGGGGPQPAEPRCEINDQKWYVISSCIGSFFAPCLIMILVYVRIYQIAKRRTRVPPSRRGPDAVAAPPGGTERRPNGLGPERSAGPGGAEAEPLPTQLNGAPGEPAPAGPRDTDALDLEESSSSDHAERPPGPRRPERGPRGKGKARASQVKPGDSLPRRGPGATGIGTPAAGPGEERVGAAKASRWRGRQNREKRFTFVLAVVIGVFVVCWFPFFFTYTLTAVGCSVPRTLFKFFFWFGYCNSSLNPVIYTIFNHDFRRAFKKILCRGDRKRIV
Nature of the assay: cell-based.

What is called pIC50 is −log10 of the IC50, conventionally taken in molar units.

pIC50: −log10 of the molar value. Where only a bound is given, the exact number is not on record here.

Experimental for human alpha2A receptors: Experiment 1: Determination of alpha2A and alpha2C Antagonistic Activity In Vitro
The growth medium was removed and the cells were incubated with the test compounds and the FLIPR Calcium 6 Assay reagent (Molecular Devices, CA, USA) for 2 h at 37° C. in dark. The test compounds (concentrations in cells 100 pM-10 μM) were dissolved in Probenecid-Ringer consisting of 150 mM NaCl, 3 mM KCl, 1.2 mM MgCl2, 1 mM CaCl2, 5 mM glucose, 20 mM HEPES and 2.5 mM probenecid (pH 7.4 adjusted with 1.0 M NaOH). […] All experiments were performed at 37° C. For agonism measurements the test compounds dissolved in Probenecid-Ringer were applied by FLIPR Tetra at 15 s time point. In order to determine antagonism, the cells were stimulated either with 100 nM adrenaline or noradrenaline and the test compounds were added to the cells 2 h before the experiment with the FLIPR Calcium 6 Assay reagent. […] Typically, there were four replicates at each concentration and six different dose levels. […] The minimum fluorescence value subtracted from the maximum value for each well was used in the calculations. ScreenWorks version 4.0 software was used for analyzing the results. Fitting of the antagonist dose-response results was performed with the free Hill equation and the IC50 values were fitted with IDBS XE software using model 200: y=(A+(B/(1+((x/C)̂D)))), where A is the curve maximum, B the curve minimum and C equals the EC50 value. D is slope factor (Hill). Kb was calculated with the Cheng-Prusoff equation Kb=A/((B/C)+1), where A is the IC50 of antagonist, B the concentration of agonist and C the EC50 of the agonist.

Take `O=C1c2ncccc2CN1[C@H]1CCCN(C[C@H]2COc3ccccc3O2)C1` [example 77, 6-((S)-1-(((S)-2,3-Dihydrobenzo[b][1,4]dioxin-2-yl)methyl)piperidin-3-yl)-5H-pyrrolo[3,4-b]pyridin-7(6H)-one]: on human alpha2C receptors, the pIC50 is 7.98 and the Kb was 1.05 nM. Also, at human alpha2A receptors, the pIC50 is < 5.00 and the Kb is > 449 nM.

In the case of `CCC1(CC)OC(=O)N([C@H]2CCCN(C[C@H]3COc4ccccc4O3)C2)C1=O` [example 5, 3-((S)-1-(((S)-2,3-Dihydrobenzo[b][1,4]dioxin-2-yl)methyl)piperidin-3-yl)-5,5-diethyloxazolidine-2,4-dione], at human alpha2C receptors, the pIC50 was 9.89 and the Kb was 0.01 nM. On human alpha2A receptors, this molecule showed a pIC50 of 5.89 and a Kb of 58 nM.

On to `O=c1[nH]c2ccccc2c(=O)n1[C@H]1CCCN(C[C@H]2COc3ccccc3O2)C1` [example 72, 3-((S)-1-(((S)-2,3-Dihydrobenzo[b][1,4]dioxin-2-yl)methyl)-piperidin-3-yl)quinazoline-2,4(1H,3H)-dione], for which, on human alpha2C receptors, the pIC50 was 9.91 and the Kb was 0.012 nM. Moreover, on human alpha2A receptors, the negative logarithm of the IC50 (pIC50) is < 5.00 and the Kb was > 449 nM.

With `CC1CCN([C@H]2CCCN(C[C@H]3COc4ccccc4O3)C2)C1=O` (stereo partly drawn) [example 97, 1-((S)-1-(((S)-2,3-Dihydrobenzo[b][1,4]dioxin-2-yl)methyl)-piperidin-3-yl)-3-methylpyrrolidin-2-one], the results for the negative logarithm of the IC50 (pIC50) at human alpha2C receptors and against human alpha2A receptors were 9.00 and < 5.00, respectively. The values for the Kb at human alpha2C receptors and at human alpha2A receptors were 0.1 nM and > 449 nM, respectively.

For the molecule `O=C1CN(C2CCCC2)C(=O)N1[C@H]1CCCN(C[C@H]2COc3ccccc3O2)C1` [example 106, 1-Cyclopentyl-3-((S)-1-(((S)-2,3-dihydrobenzo[b][1,4]dioxin-2-yl)methyl)piperidin-3-yl)imidazolidine-2,4-dione], the pIC50 at human alpha2C receptors is 10.00; on human alpha2A receptors it was < 5.00. In addition, the results for the Kb on human alpha2C receptors and at human alpha2A receptors were 0.01 nM and > 449 nM, respectively.

On to `Clc1ccc2c(c1)ncn2[C@H]1CCCN(C[C@H]2COc3ccccc3O2)C1` [example 91, 5-Chloro-1-((S)-1-(((S)-2,3-dihydrobenzo[b][1,4]dioxin-2-yl)methyl)piperidin-3-yl)-1H-benzo[d]imidazole], for which, at human alpha2C receptors, the pIC50 is > 10.00 and the Kb is < 0.01 nM. At human alpha2A receptors, the pIC50 was < 5.00 and the Kb is > 449 nM.

On to `CSc1ncc2c(n1)C(=O)N([C@H]1CCCN(C[C@H]3COc4ccccc4O3)C1)C2` [example 12, 6-((S)-1-(((S)-2,3-Dihydrobenzo[b][1,4]dioxin-2-yl)methyl)piperidin-3-yl)-2-(methylthio)-5H-pyrrolo[3,4-d]pyrimidin-7(6H)-one], for which, on human alpha2C receptors, the pIC50 was 6.29 and the Kb was 51.2 nM. In addition, at human alpha2A receptors, the pIC50 is < 5.00 and the Kb is > 449 nM.

In the case of `O=C1c2ccc(F)cc2C(=O)N1[C@H]1CCCN(C[C@H]2COc3ccccc3O2)C1` [example 62, 2-((S)-1-(((S)-2,3-Dihydrobenzo[b][1,4]dioxin-2-yl)methyl)piperidin-3-yl)-5-fluoroisoindoline-1,3-dione], on human alpha2C receptors, the pIC50 was > 10.00 and the Kb is < 0.01 nM. Further, on human alpha2A receptors, the negative logarithm of the IC50 (pIC50) was < 5.00 and the Kb was > 449 nM.

For the molecule `O=C1C(=O)N([C@H]2CCCN(C[C@H]3COc4ccccc4O3)C2)C(=O)N1C1CCCC1` [example 127, 1-Cyclopentyl-3-((S)-1-(((S)-2,3-dihydrobenzo[b][1,4]dioxin-2-yl)methyl)piperidin-3-yl)imidazolidine-2,4,5-trione], the pIC50 was 10.57 on human alpha2C receptors and 5.06 against human alpha2A receptors. Also, the Kb is 0.003 nM at human alpha2C receptors and 389 nM at human alpha2A receptors.

As to `C[C@@]1(c2ccccc2)CCN([C@H]2CCCN(C[C@H]3COc4ccccc4O3)C2)C1=O` [example 15, (S)-1-((S)-1-(((S)-2,3-Dihydrobenzo[b][1,4]dioxin-2-yl)methyl)-piperidin-3-yl)-3-methyl-3-phenylpyrrolidin-2-one], at human alpha2C receptors, the pIC50 is 6.44 and the Kb was 36.6 nM. Moreover, at human alpha2A receptors, the pIC50 was < 5.00 and the Kb was > 449 nM.

`CN(C)C(=O)CN1C(=O)N([C@H]2CCCN(C[C@H]3COc4ccccc4O3)C2)C(=O)C12CC2` [example 124, 2-(6-((S)-1-(((S)-2,3-Dihydrobenzo[b][1,4]dioxin-2-yl)methyl)-piperidin-3-yl)-5,7-dioxo-4,6-diazaspiro[2.4]heptan-4-yl)-N,N-dimethylacetamide]: the values for the pIC50 on human alpha2C receptors and against human alpha2A receptors were 8.83 and < 5.00, respectively. Further, the Kb is 0.131 nM on human alpha2C receptors and > 449 nM at human alpha2A receptors.

Regarding `C[C@]1(c2ccccc2)CCN([C@H]2CCCN(C[C@H]3COc4ccccc4O3)C2)C1=O` [example 14, (R)-1-((S)-1-(((S)-2,3-Dihydrobenzo[b][1,4]dioxin-2-yl)methyl)piperidin-3-yl)-3-methyl-3-phenylpyrrolidin-2-one], the pIC50 was 10.32 at human alpha2C receptors and 5.23 on human alpha2A receptors. Besides, the results for the Kb on human alpha2C receptors and at human alpha2A receptors were 0.005 nM and 262 nM, respectively.

For `O=C1NC(c2ccccc2)(c2ccccc2)CN1[C@H]1CCCN(C[C@H]2COc3ccccc3O2)C1` [example 2, 1-((S)-1-(((S)-2,3-Dihydrobenzo[b][1,4]dioxin-2-yl)methyl)piperidin-3-yl)-4,4-diphenylimidazolidin-2-one], at human alpha2C receptors, the pIC50 is > 10.00 and the Kb is < 0.01 nM. At human alpha2A receptors, the pIC50 was 5.87 and the Kb was 60 nM.

On to `O=C1N(Cc2ccccc2)CCN1[C@H]1CCCN(C[C@H]2COc3ccccc3O2)C1` [example 50, 1-Benzyl-3-((S)-1-(((S)-2,3-dihydrobenzo[b][1,4]dioxin-2-yl)methyl)piperidin-3-yl)imidazolidin-2-one], for which, at human alpha2C receptors, the negative logarithm of the IC50 (pIC50) is > 10.00 and the Kb is < 0.01 nM. In addition, at human alpha2A receptors, the pIC50 is 5.99 and the Kb is 46 nM.

Consider `O=S1(=O)Cc2ccccc2N1[C@H]1CCCN(C[C@H]2COc3ccccc3O2)C1` [example 25, 1-((S)-1-(((S)-2,3-Dihydrobenzo[b][1,4]dioxin-2-yl)methyl)piperidin-3-yl)-1,3-dihydrobenzo[c]isothiazole 2,2-dioxide], for which the results for the pIC50 at human alpha2C receptors and on human alpha2A receptors were 7.71 and 6.27, respectively. For the same molecule, the Kb at human alpha2C receptors was 1.95 nM; on human alpha2A receptors it was 24 nM.

As to `c1ccc2c(c1)OC[C@H](CN1CCC[C@H](n3nnc4ccccc43)C1)O2` [example 145, 1-((S)-1-(((S)-2,3-Dihydrobenzo[b][1,4]dioxin-2-yl)methyl)piperidin-3-yl)-1H-benzo[d][1,2,3]triazole], the pIC50 on human alpha2C receptors is 9.07; at human alpha2A receptors it was 5.56. Also, the Kb at human alpha2C receptors is 0.09 nM; on human alpha2A receptors it was 125 nM.

Take `Cn1c(=O)n([C@H]2CCCN(C[C@H]3COc4ccccc4O3)C2)c2ccccc21` [example 147, 1-((S)-1-(((S)-2,3-Dihydrobenzo[b][1,4]dioxin-2-yl)methyl)piperidin-3-yl)-3-methyl-1H-benzo[d]imidazol-2(3H)-one]: on human alpha2C receptors, the pIC50 was 6.64 and the Kb is 22.9 nM. Also, on human alpha2A receptors, the pIC50 was < 5.00 and the Kb is > 449 nM.
